In brackets after ≈: the same amount, converted by molar mass. Activity calls are given as the source filed them. No cut-off for these calls is given here.
Legend:
Cell membrane [1] = assay: Disruption of membrane integrity in Bacillus subtilis ATCC 6633 assessed as increase in PI positive cells at 16 ug/ml measured after 1 hr by SYTO9/PI staining based confocal laser scanning microscope analysis; format: subcellular; conditions: dose 16.0 µg/ml
[2] = Apparent permeability of the compound across bacterial inner membrane mimic PC-phospholipids in PBS buffer assessed as membrane retention at pH 7.4 incubated for 5 hrs by PAMPA based UV-Vis spectrophotometric analysis; format: ADME, cell membranes; conditions: pH 7.4, 5 h
Lipid bilayer [3] = assay: Binding affinity to bacterial membrane mimic POPG large unilamellar vesicle assessed as hyperchromic shift at 125 uM measured after 1 hr by UV-Vis spectrophotometric analysis
Staphylococcus aureus = assay: Antibacterial activity against Staphylococcus aureus ATCC 25923 assessed as bacterial growth inhibition incubated for 18 hrs by micro-dilution broth method; format: functional
[4] = Hemolytic activity against human RBC at 16 ug/ml incubated for 30 mins relative to control; format: toxicity, cell-based, Erythrocyte; conditions: human red blood cells (erythrocytes), at 16 µg/mL, read-out: Activity
Bacillus subtilis = assay: Antibacterial activity against Bacillus subtilis ATCC 6633 assessed as bacterial growth inhibition incubated for 18 hrs by CLSI based micro-dilution broth method; format: functional
Cell membrane [5] = assay: Disruption of membrane integrity in Staphylococcus aureus ATCC 25923 assessed as increase in PI positive cells at 16 ug/ml measured after 1 hr by SYTO9/PI staining based confocal laser scanning microscope analysis; format: subcellular; conditions: dose 16.0 µg/ml
Cell membrane [6] = assay: Disruption of membrane integrity in Bacillus subtilis ATCC 6633 assessed as increase in PI uptake at 16 ug/ml measured after 1 hr by SYTO9/PI staining based fluorometric analysis; format: subcellular; conditions: dose 16.0 µg/ml
Cell membrane [7] = assay: Disruption of membrane integrity in Pseudomonas aeruginosa ATCC 27853 assessed as increase in PI uptake at 16 ug/ml measured after 1 hr by SYTO9/PI staining based fluorometric analysis; format: subcellular; conditions: dose 16.0 µg/ml
Acinetobacter baumannii [8] = assay: Antibacterial activity against Acinetobacter baumannii AC-54/97 assessed as bacterial growth inhibition incubated for 18 hrs by CLSI based micro-dilution broth method; format: functional
Cell membrane [9] = assay: Disruption of membrane integrity in Acinetobacter baumannii ATCC 17978 assessed as increase in PI positive cells at 16 ug/ml measured after 1 hr by SYTO9/PI staining based confocal laser scanning microscope analysis; conditions: dose 16.0 µg/ml
Cell membrane [10] = assay: Disruption of membrane integrity in Enterococcus faecalis ATCC 19433 assessed as increase in PI uptake at 16 ug/ml measured after 1 hr by SYTO9/PI staining based fluorometric analysis; format: subcellular; conditions: dose 16.0 µg/ml
Acinetobacter baumannii [11] = assay: Antibacterial activity against Acinetobacter baumannii ATCC 17978 assessed as bacterial growth inhibition incubated for 18 hrs by micro-dilution broth method; format: functional
Streptococcus pyogenes = assay: Antibacterial activity against Streptococcus pyogenes ATCC 12344 assessed as bacterial growth inhibition incubated for 18 hrs by micro-dilution broth method; format: functional
Cell membrane [12] = assay: Disruption of membrane integrity in Enterococcus faecalis ATCC 19433 assessed as increase in PI positive cells at 16 ug/ml measured after 1 hr by SYTO9/PI staining based confocal laser scanning microscope analysis; format: subcellular; conditions: dose 16.0 µg/ml
Klebsiella pneumoniae [13] = assay: Antibacterial activity against Klebsiella pneumoniae ATCC 13833 assessed as bacterial growth inhibition incubated for 18 hrs by micro-dilution broth method; format: functional
[14] = Apparent permeability of the compound across bacterial inner membrane mimic pure POPG in PBS buffer assessed as membrane retention at pH 7.4 incubated for 5 hrs by PAMPA based UV-Vis spectrophotometric analysis; format: ADME, cell membranes; conditions: pH 7.4, 5 h
Cell membrane [15] = assay: Disruption of membrane integrity in Escherichia coli MG1655 assessed as increase in PI uptake at 16 ug/ml measured after 1 hr by SYTO9/PI staining based fluorometric analysis; format: subcellular; conditions: dose 16.0 µg/ml
Cell membrane [16] = assay: Disruption of membrane integrity in Escherichia coli MG1655 assessed as increase in PI uptake at 16 ug/ml measured every 15 mins for 6 hrs by SYTO9/PI staining based fluorometric analysis; conditions: dose 16.0 µg/ml
[17] = Hemolytic activity against human RBC at 4 ug/ml incubated for 30 mins (reference value: 0%); format: toxicity, cell-based, Erythrocyte; conditions: human red blood cells (erythrocytes), at 4 µg/mL, read-out: Activity
[18] = Apparent permeability of the compound across bacterial inner membrane mimic POPE/POPG (6:4) in PBS buffer at pH 7.4 incubated for 5 hrs by PAMPA based UV-Vis spectrophotometric analysis; format: ADME
Cell membrane [19] = assay: Disruption of membrane integrity in Enterococcus faecalis ATCC 19433 assessed as increase in PI uptake at 16 ug/ml measured after 15 mins by SYTO9/PI staining based fluorometric analysis; conditions: dose 16.0 µg/ml
Enterococcus faecalis = assay: Antibacterial activity against Enterococcus faecalis ATCC 19433 assessed as bacterial growth inhibition incubated for 18 hrs by micro-dilution broth method; format: functional
Cell membrane [20] = assay: Disruption of membrane integrity in Staphylococcus aureus ATCC 25923 assessed as increase in PI uptake at 16 ug/ml measured every 15 mins for 6 hrs by SYTO9/PI staining based fluorometric analysis; format: subcellular; conditions: dose 16.0 µg/ml
[21] = Apparent permeability of the compound across bacterial inner membrane mimic POPE/POPG (6:4) in PBS buffer assessed as membrane retention at pH 7.4 incubated for 5 hrs by PAMPA based UV-Vis spectrophotometric analysis; format: ADME, cell membranes; conditions: pH 7.4, 5 h
Cell membrane [22] = assay: Disruption of membrane integrity in Staphylococcus aureus ATCC 25923 assessed as increase in PI uptake at 16 ug/ml measured after 1 hr by SYTO9/PI staining based fluorometric analysis; conditions: dose 16.0 µg/ml
Cell membrane [23] = assay: Disruption of membrane integrity in Acinetobacter baumannii ATCC 17978 assessed as increase in PI uptake at 16 ug/ml measured after 15 mins by SYTO9/PI staining based fluorometric analysis; conditions: dose 16.0 µg/ml
Cell membrane [24] = assay: Disruption of membrane integrity in Bacillus subtilis ATCC 6633 assessed as increase in PI uptake at 16 ug/ml measured after 15 mins by SYTO9/PI staining based fluorometric analysis; conditions: dose 16.0 µg/ml
Lipid bilayer [25] = assay: Binding affinity to bacterial membrane mimic POPG large unilamellar vesicle assessed as bathochromic shift at 125 uM measured at t = 0 by UV-Vis spectrophotometric analysis
[26] = Apparent permeability of the compound across bacterial inner membrane mimic PC-phospholipids in PBS buffer at pH 7.4 incubated for 5 hrs by PAMPA based UV-Vis spectrophotometric analysis; format: ADME
Cell membrane [27] = assay: Disruption of membrane integrity in Acinetobacter baumannii ATCC 17978 assessed as increase in PI uptake at 16 ug/ml measured after 1 hr by SYTO9/PI staining based fluorometric analysis; format: subcellular; conditions: dose 16.0 µg/ml
Escherichia coli = assay: Antibacterial activity against Escherichia coli CCUG assessed as bacterial growth inhibition incubated for 18 hrs by micro-dilution broth method; format: functional
Klebsiella pneumoniae [28] = assay: Antibacterial activity against pan drug-resistant Klebsiella pneumoniae S1-081Rb assessed as bacterial growth inhibition incubated for 18 hrs by CLSI based micro-dilution broth method; format: functional
[29] = Hemolytic activity against human RBC at 8 ug/ml incubated for 30 mins (reference value: 0%); format: toxicity, cell-based, Erythrocyte; conditions: human red blood cells (erythrocytes), at 8 µg/mL, read-out: Activity

| Compound | Activity (Cell membrane [1]) | R% [2] | Activity (Lipid bilayer [3]) | MIC (Staphylococcus aureus) | hemolysis at 0.5 h, 16 ug/ml [4] | MIC (Bacillus subtilis) | Activity (Cell membrane [5]) | Activity (Cell membrane [6]) | Activity (Cell membrane [7]) | MBC (Acinetobacter baumannii [8]) | MIC (Acinetobacter baumannii [8]) | Activity (Cell membrane [9]) | Activity (Cell membrane [10]) | MIC (Acinetobacter baumannii [11]) | MIC (Streptococcus pyogenes) | Activity (Cell membrane [12]) | MIC (Klebsiella pneumoniae [13]) | R% [14] | Activity (Cell membrane [15]) | Activity (Cell membrane [16]) | further results |
| --- | --- | --- | --- | --- | --- | --- | --- | --- | --- | --- | --- | --- | --- | --- | --- | --- | --- | --- | --- | --- | --- |
| N=C(NCCCCCCCCNC(N)=O)NCC1CC1.O=C(O)C(F)(F)F | Active | 7.7% | Active | 1 mg/L | 0% | 1 mg/L | Active | Active | Active | 16 mg/L | 16 mg/L | Active | Active | 16 mg/L | 0.5 mg/L | Active | 1 mg/L | 16% | Active | Active | hemolysis at 0.5 h, 4 ug/ml [17]: 0%; Papp at 5 h [18]: 34.8 nm/s; Activity (Cell membrane [19]): Active; MIC (Enterococcus faecalis): 1 mg/L; Activity (Cell membrane [20]): Active; R% [21]: 3.2%; Activity (Cell membrane [22]): Active; Activity (Cell membrane [23]): Active; Activity (Cell membrane [24]): Active; Activity (Lipid bilayer [25]): Active; Papp at 5 h [26]: 31.7 nm/s; Activity (Cell membrane [27]): Active; MIC (Escherichia coli): 2 mg/L; MBC (Klebsiella pneumoniae [28]): 4 mg/L; MIC (Klebsiella pneumoniae [28]): 4 mg/L; hemolysis at 0.5 h, 8 ug/ml [29]: 0% |
| N=C(N)NCCCCCCCCN(CCCCCCCCNC(=N)NCC1CC1)C(=O)N(CCCCCCCCNC(=N)NCC1CC1)CCCCCCCCNC(=N)NCC1CC1.O=C(O)C(F)(F)F | Active | 0% | Active | 0.5 mg/L | 1.1% | 0.5 mg/L | Active | Active | Active | 8 mg/L | 8 mg/L | Active | Active | 4 mg/L | 0.25 mg/L | Active | 1 mg/L | 56% | Active | Active | hemolysis at 0.5 h, 4 ug/ml [17]: 0%; Papp at 5 h [18]: 3 nm/s; Activity (Cell membrane [19]): Active; MIC (Enterococcus faecalis): 1 mg/L; Activity (Cell membrane [20]): Active; R% [21]: 40.8%; Activity (Cell membrane [22]): Active; Activity (Cell membrane [23]): Active; Activity (Cell membrane [24]): Active; Activity (Lipid bilayer [25]): Active; Papp at 5 h [26]: 18.5 nm/s; Activity (Cell membrane [27]): Active; MIC (Escherichia coli): 0.5 mg/L; MBC (Klebsiella pneumoniae [28]): 2 mg/L; MIC (Klebsiella pneumoniae [28]): 2 mg/L; hemolysis at 0.5 h, 8 ug/ml [29]: 0% |
| CCCCCCCCN(CCCCCCCCNC(=N)NCC1CC1)C(=O)N(CCCCCCNC(=N)NCC1CC1)CCCCCCNC(=N)NCC1CC1 | Active | 0% | Active | 2 mg/L (≈ 2.54 µM) | 2.4% | 0.5 mg/L (≈ 0.636 µM) | Active | Active | Active | 8 mg/L (≈ 10.2 µM) | 8 mg/L (≈ 10.2 µM) | Active | Active | 16 mg/L (≈ 20.3 µM) | 1 mg/L (≈ 1.27 µM) | Active | 4 mg/L (≈ 5.09 µM) | 63% | Active | Active | hemolysis at 0.5 h, 4 ug/ml [17]: 0.5%; Papp at 5 h [18]: 1.3 nm/s; Activity (Cell membrane [19]): Active; MIC (Enterococcus faecalis): 0.5 mg/L (≈ 0.636 µM); Activity (Cell membrane [20]): Active; R% [21]: 65.2%; Activity (Cell membrane [22]): Active; Activity (Cell membrane [23]): Active; Activity (Cell membrane [24]): Active; Activity (Lipid bilayer [25]): Active; Papp at 5 h [26]: 47.9 nm/s; Activity (Cell membrane [27]): Active; MIC (Escherichia coli): 4 mg/L (≈ 5.09 µM); MBC (Klebsiella pneumoniae [28]): 8 mg/L (≈ 10.2 µM); MIC (Klebsiella pneumoniae [28]): 8 mg/L (≈ 10.2 µM); hemolysis at 0.5 h, 8 ug/ml [29]: 1.2% |

— ChEMBL document CHEMBL5154741, “Antibacterial alkylguanidino ureas: Molecular simplification approach, searching for membrane-based MoA” (Eur J Med Chem, 2022)
